This is an account of results in patent US20250177408A1, “INHIBITOR OF INTERACTION BETWEEN YAP/TAZ AND TEAD, PREPARATION THEREOF, PHARMACEUTICAL COMPOSITION THEREOF AND USE THEREOF” (ETERN BIOPHARMA (SHANGHAI) CO., LTD., priority 2022, published 2025).

Where a name gives a salt, the structure may show the parent alone. Bounds are passed on as bounds.

The test system of one assay is MSTO-211H cells. The assay can be described thus: Cell proliferation inhibition experiment (CellTiter-Glo). The assay is classed as cell-based. The note with it: Homo sapiens, 96 hours, read-out: Inhibitory activity of each compound on the proliferation of MSTO-211H cells (grades of IC50 values). As to the method:
In this example, the intracellular ATP was quantitatively determined by the CellTiter-Glo luminescence cell viability detection kit to detect the number of living cells in the culture.
Step 1: MSTO-211H (ATCC, CRL-2081TM) or NCI-H2052 (ATCC, CRL-5915TM) cells were inoculated in a 96-well plate at a density of 1500 cells per well with a volume of 100 μL per well, and the cells were incubated overnight in a 37° C., 5% carbon dioxide incubator. The culture medium used was RPMI1640 medium (GIBCO-A10491-01)+10% FBS (GIBCO-10099141C)+1% penicillin/streptomycin (Pen/Strep) (GIBCO-15070-063).
Step 2: The cells were treated with the compounds to be tested. The compounds to be tested were 3-fold diluted, and a total of 9 concentration gradients were set up; a certain volume of DMSO or the compounds to be tested was added to each well, respectively, and 2 replicates were set up for each concentration, and the final concentration of DMSO was controlled to be no higher than 0.5%. The cells were incubated for 96 hours in a 37° C., 5% carbon dioxide incubator.
Step 3: Cell viability was detected in the control group and treatment group using CellTiter-Glo Luminescent Cell Viability Assay kit (Promega, G7570). 50 μL of CellTiter-Glo was added to each well, mixed well, and incubated at room temperature for 10 minutes. The signal was read using En Vision® Multilabel Plate Reader (Perkin Elmer).
(§1) The inhibition percentage (%) was calculated using the following formula: […]
Using Graphpad Prism software, the IC50 values of the compounds inhibiting the CTG signal of cell proliferation activity was calculated.

The target in assay [1] is YAP-TEAD protein interaction (His-TEAD1 (209-426) protein, Bio-YAP peptide (60-100)) (Homo sapiens, UniProt P28347). The assay can be described thus: YAP-TEAD protein interaction HTRF experiment. It is filed as binding. The following applies: His-TEAD1 (209-426) 10 nM, Bio-YAP peptide 50 nM, read-out: Activity of each compound in blocking YAP-TEAD protein interaction (grades of IC50 values). The protocol: In this example, the YAP-TEAD protein interaction HTRF experiment was used to detect the activity of each compound in blocking the YAP-TEAD protein interaction.
The experiment was carried out according to the following operation steps:
Step 1: His-TEAD1 (209-426) protein was added to a 384-well detection white plate to a final concentration of 10 nM, and buffer was used as the background signal well. The compounds to be tested were subjected to 3-fold dilution and a total of 10 concentration gradients were set up, and each diluted solution was mixed well. A certain volume of the compound to be tested was added to each well separately, 2 replicates were set for each concentration, and the final concentration of DMSO was controlled at 1%. Incubation was carried out at room temperature for 20 minutes. The amino acid sequence of TAED1 (209-426) used in this step is shown in SEQ ID NO: 1:
After mixing evenly, the mixture was incubated at room temperature for 10 minutes.
Step 3: Anti-His-Eu cryptate gold and streptavidin-XL665 were diluted according to the instructions and mixed in equal proportions. A certain volume of the detection reagent was added to the well, and the mixture was incubated at room temperature for 1 hour.
Step 4: The signal was detected using an Envision (Perkin Elmer) microplate reader at an excitation wavelength of 320 nm and emission wavelengths of 665 nm and 620 nm.
Step 5: The signal was calculated based on the ratio of Em665/Em620*10000.
as §1
The half-maximal inhibitory concentration (IC50) values were calculated using GraphPad Prism software.
A general note: TR-FRET usually uses a lanthanide donor and a delayed reading to cut background.

YAP-TEAD protein interaction (His-TEAD1 (209-426) protein, Bio-YAP peptide (60-100)), sequence (P28347 209-426): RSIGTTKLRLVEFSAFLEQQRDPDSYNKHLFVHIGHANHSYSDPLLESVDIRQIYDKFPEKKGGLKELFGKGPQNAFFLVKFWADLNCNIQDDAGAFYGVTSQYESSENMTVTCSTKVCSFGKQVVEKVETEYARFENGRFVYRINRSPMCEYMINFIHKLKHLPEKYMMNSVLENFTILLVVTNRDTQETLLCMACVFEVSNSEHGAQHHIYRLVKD

For the compound `CO[C@H]1CC[C@H](NC[C@@]2(c3ccccc3)Cc3c(cc(F)c(Cl)c3-c3c(C(N)=O)cc4c(c3F)OCc3nn(C)cc3-4)O2)CC1` (atropisomer, axis not shown) [Compound 78, (S)-7-((S)-5-Chloro-6-fluoro-2-((((1R,4S)-4-methoxycyclohexyl)amino)methyl)-2-phenyl-2,3-dihydrobenzofuran-4-yl)-6-fluoro-2-methyl-2,4-dihydrochromeno[3,4-c]pyrazole-8-carboxamide], the IC50 with MSTO-211H cells was under 200 nM; in assay [1], under 50 nM.

In the case of `Cn1cc2c(n1)COc1c-2cc(C(N)=O)c(-c2c(Cl)c(F)cc3c2C[C@@](CN[C@H]2CC[C@H](C(N)=O)CC2)(c2ccccc2)O3)c1F` (atropisomer, axis not shown) [Compound 79], the IC50 with MSTO-211H cells was 200 to 500 nM; in assay [1] it was under 50 nM.

With `Cn1cc2c(n1)COc1c-2cc(C(N)=O)c(-c2c(Cl)c(F)cc3c2C[C@@](CN[C@H]2CC[C@H](O)CC2)(c2ccccc2)O3)c1F` (atropisomer, axis not shown) [Compound 81], the figures for the IC50 (in the assay with MSTO-211H cells; in assay [1]) were under 200 nM and under 50 nM, respectively.

As for `CO[C@H]1C[C@H](CNC[C@@]2(c3ccccc3)Cc3c(cc(F)c(Cl)c3-c3c(C(N)=O)cc4c(c3F)OCc3nn(C)cc3-4)O2)C1` (atropisomer, axis not shown) [Compound 84, (S)-7-((S)-5-Chloro-6-fluoro-2-(((((1r,3S)-3-methoxycyclobutyl)methyl)amino)methyl)-2-phenyl-2,3-dihydrobenzofuran-4-yl)-6-fluoro-2-methyl-2,4-dihydrochromeno[3,4-c]pyrazole-8-carboxamide formate], the IC50 in the assay with MSTO-211H cells was 200 to 500 nM; in assay [1], under 50 nM.

For `NC(=O)c1cc2c(c(F)c1-c1c(Cl)c(F)cc3c1C[C@](c1ccccc1)([C@@H]1CCCN1)O3)Oc1nc(CO)cnc1O2` (atropisomer, axis not shown) [Compound 101, (S)-8-((S)-5-Chloro-6-fluoro-2-phenyl-2-((S)-pyrrolidin-2-yl)-2,3-dihydrobenzofuran-4-yl)-9-fluoro-2-(hydroxymethyl)benzo[5,6] [1,4]dioxo [2,3-b]pyrazine-7-carboxamide], the results for the IC50 (with MSTO-211H cells; in assay [1]) were under 200 nM and under 50 nM, respectively.

As for `NC(=O)c1cc2c(c(F)c1-c1c(Cl)c(F)cc3c1C[C@](c1ccccc1)([C@@H]1CCCN1)O3)Oc1ncc(CO)nc1O2` (atropisomer, axis not shown) [Compound 102, (S)-8-((S)-5-Chloro-6-fluoro-2-phenyl-2-((S)-pyrrolidin-2-yl)-2,3-dihydrobenzofuran-4-yl)-9-fluoro-3-(hydroxymethyl)benzo[5,6] [1,4]dioxo [2,3-b]pyrazine-7-carboxamide], the IC50 in the assay with MSTO-211H cells is under 200 nM; in assay [1] it was under 50 nM.

Turning to `Cn1ncc2c(c1=O)Oc1c(cc(C(N)=O)c(-c3c(Cl)c(F)cc4c3C[C@](c3ccccc3)([C@@H]3CCCN3)O4)c1F)O2` (atropisomer, axis not shown) [Compound 105, (S)-8-((S)-5-Chloro-6-fluoro-2-phenyl-2-((S)-pyrrolidin-2-yl)-2,3-dihydrobenzofuran-4-yl)-9-fluoro-2-methyl-1-oxo-1,2-dihydrobenzo[5,6][1,4]dioxo[2,3-d]pyridazine-7-carboxamide], the IC50 in the assay on MSTO-211H cells is under 200 nM; in assay [1] it was under 50 nM.

For `NC(=O)c1cc2c(c(F)c1-c1c(Cl)c(F)cc3c1C[C@](c1ccccc1)([C@@H]1CCCN1)O3)Oc1c(cn[nH]c1=O)O2` (atropisomer, axis not shown) [Compound 107, (S)-8-((S)-5-Chloro-6-fluoro-2-phenyl-2-((S)-pyrrolidin-2-yl)-2,3-dihydrobenzofuran-4-yl)-9-fluoro-1-oxo-1,2-dihydrobenzo[5,6][1,4]dioxo [2,3-d]pyridazine-7-carboxamide], the figures for the IC50 (in the assay with MSTO-211H cells; in assay [1]) were under 200 nM and under 50 nM, respectively.
